Publication PMC11984905, “Chiral Switch of Gadopiclenol: New Standards in MRI Probes” (Advanced Science, 2025)
Several values for one entry are separate records, joined by “and”; a condition that tells them apart may be missing. Equal values may be shown once. Marks after values point to notes of the source that are not given here.

What was measured:
[1] = Relaxivity (NMRD) in saline solution, human plasma and Seronorm at 310 K; type: physicochemical
Procedure: (§1) The magnetic‐field dependence of the longitudinal relaxation rate of water protons (^1H NMRD) were measured in aqueous solution by using a variable field relaxometer equipped with an HTS‐110 3T Metrology Cryogen‐free Superconducting Magnet (Mede, Italy), operating in the overall range of proton Larmor frequencies of 20–120 MHz (0.47–3.00 T). The measurements were performed using the standard inversion recovery sequence (20 experiments, 3 scans) with a 90° pulse width of 3.5 µs. The temperature was controlled with a Stelar VTC‐91 heater airflow. Additional points in the 0.01–10 MHz frequency range were collected on a Fast‐Field Cycling (FFC) Stelar SmarTracer Relaxometer. T 1 values at 500 MHz were collected on a Bruker Avance III NMR spectrometer operating at 11.7 T. The concentration of Gd^3+ in the solutions was determined by using bulk magnetic susceptibility (BMS) shift measurements performed at 11.7 T. For the measurements in the biological fluid, lyophilized plasma matrix (Siemens Healthcare) was added to 1 mL of [Gd(ent‐L2)] (1.0 mM) or Seronorm (Sero) was solubilized in 5 mL [Gd(ent‐L2)] (1.0 mM) solution. ^1H NMRD of the final solution was measured at 310 K.

[2] = 1H NMRD profiles and 17O NMR relaxometry in water; type: physicochemical; settings: for ^298K r 1 [1.5 T] / r 1 ^310K [1.5 T]: water; for ER / q: fixed in the fitting procedure; for q: number of coordinated water molecules; for τ M1: residence time of coordinated water 1, 298 K; for τ M2: residence time of coordinated water 2, 298 K; for ^SS q: second-sphere water molecules at 3.6 Å; for ^298K r 1 [1.5 T] / ^SS q: 298 K
Procedure: as §1
The spectra were acquired on a Bruker Avance III spectrometer (11.7 T) using a 5 mm probe under temperature control. An aqueous solution of the complexes ([GdL] = 10–15 mM) was enriched to ca. 2.0% of the ^17O isotope (Cambridge Isotope). The transverse relaxation rates (R 2) were measured as a function of temperature in the 278−350 K range. The simultaneous fit of ^1H NMRD and ^17O NMR profiles data was performed using the Micromath Scientist software (version 2.0, Salt Lake City, UT, USA).

[3] = Stability and protonation constants of Zn(II)-complexes (pH-potentiometry); type: physicochemical; settings: 0.15 M NaCl, 25 °C
Procedure: The protonation constants of ligands, the stability and protonation constants of Ca(II)‐ and Zn(II)‐complexes formed with rac‐L1, ent‐L1, rac‐L2, and ent‐L2 ligands were determined by pH‐potentiometric titration. The metal‐to‐ligand concentration ratio was 1:1 (the concentration of the ligand was generally 0.002 M). The protonation constants of the Cu(II)‐ and Gd(III)‐complexes were determined using pH‐potentiometry by titrating the pre‐prepared complexes from pH 2.0 to 12.0 with 0.2 M NaOH. The stability constants of the Gd(III)‐complexes with rac‐L1 and ent‐L1 ligands were determined by the “out‐of‐cell” technique because of their slow formation reaction. The pH range of the complexation equilibria and the time needed to reach the equilibria were determined by relaxometry. Eight–eight Gd(III) – rac‐L1 and Gd(III) – ent‐L1 samples were prepared, with pH values in the range of 1.7–3.0 at equilibrium ([Gd^3+] = [L] = 0.002 M). The samples were kept at 25 °C for 6 weeks to reach equilibrium. For the calculation of the stability constants of the [Gd(rac‐L1)]^3− and [Gd(ent‐L1)]^3− complexes, besides the protonation constants of ligands and the Gd(III) complexes, the stability constants of the di‐protonated [^*Gd(H2 rac‐L1)]^− and [^*Gd(H2 […])]^− out‐of‐cage complexes (considered as intermediates) was also used as fixed values, which were calculated from the pH‐potentiometric titration curve of the Gd(III) – rac‐L1 and Gd(III) – ent‐L1 system obtained in the pH range of 1.7–7.0.
For the pH measurements and titrations, the Metrohm 888 Titrando titration workstation Metrohm‐6.0234.110 combined electrode was used. Equilibrium measurements were carried out at a constant ionic strength (0.15 M NaCl) in 6 mL samples at 25 °C. The solutions were stirred, and N2 was bubbled through them. The titrations were made in the pH range 1.7–12.0. KH‐Phthalate (pH 4.005) and borax (pH 9.177) buffers were used to calibrate the pH meter. For the calculation of [H^+] from the measured pH values, the method proposed by Irving et al. was used as follows.^[ [46] ^] A 0.01M HCl solution was titrated with standardized NaOH solution at 0.15 M NaCl ionic strength. The differences (A) between the measured (pHread) and calculated pH (‐log[H^+]) values were used to obtain the equilibrium H^+ concentration from the pH values measured in the titration experiments (A = 0.02). For the equilibrium calculations, the stoichiometric water ionic product (pK w) was also needed in order to calculate [OH^−] values under basic conditions. The VNaOH – pHread data pairs of the HCl – NaOH titration obtained in the pH range 10.5–12.0 were used to calculate the pK w value (pK w = 13.83).
The stability and protonation constants of Ca(II)-, Zn(II)-, Cu(II)- and Gd(III)-complexes of rac-L1, ent-L1, rac-L2 and ent-L2, defined by Equations (S2) and (S3), were investigated by pH-potentiometry, spectrophotometry and ^1H NMR relaxometry at 25 °C in 0.15 M NaCl solution.
where i=0, 1, 2,…5. The KML and KMHiL values characterizing the formation of Ca(II)-, Zn(II)-, Cu(II)- and Gd(III)-complexes with rac-L1, ent-L1, rac-L2 and ent-L2 ligands have been calculated from the pH-potentiometric titration data obtained at 1:1 metal to ligand concentration ratios. In calculating the equilibrium constants, the best fitting of the mL NaOH – pH data has been obtained by assuming the formation of ML, MHL, MH2L, MH3L, MH4L, MH5L and MLH-1 species. The formation of the deprotonated [GdLH-1]^- complexes with rac-L2 and ent-L2 ligands takes place at pH>9.0, as indicated by the base consumption in the titration curves. This deprotonation of the Gd(III)-complexes occurs on the inner-sphere water molecule.

[4] = 0.1 M Me4NCl, 25 °C; cited from earlier work

Row | SMILES | ^298K r 1 [1.5 T] [2] | r 1 ^310K [1.5 T] [2] | τ R ([2]; Table 2) | τ R ([2]; Table S20, 298 K) | ER [2] | q [2] | τ M1 [2] | τ M2 [2] | ^SS q [2] | logK ZnL [3] | logKZnH2L [3] | logKZnH3L [3] | logKZnH4L [3] | logKZnHL [3] | other results
1 | O=C(CCC(C(=O)[O-])N1CCN(C(CCC(=O)NCC(O)CO)C(=O)[O-])Cc2cccc(n2)CN(C(CCC(=O)NCC(O)CO)C(=O)[O-])CC1)NCC(O)CO.[Gd+3] (stereo not drawn) [[Gd(ent‐L2)]] | 16.5 mM⁻¹ s⁻¹ | 12.6 mM⁻¹ s⁻¹ | 127 ± 4 ps | 127±4 ps | 22^b) kJ mol^-1 | 2 | 155 ± 3 ns | 77 ± 5 ns | 4.5 and 4.5 ± 0.2 | – | – | – | – | – | plasma protein binding [1]: lack of plasma protein binding; r1 ([1]; 0.47 T, human plasma, 310 K): 13.6 ± 0.1 mM⁻¹ s⁻¹; r1 ([1]; 0.47 T, saline solution, 310 K): 12.6 ± 0.1 mM⁻¹ s⁻¹; r1 ([1]; 1.41 T, human plasma, 310 K): 13.4 ± 0.2 mM⁻¹ s⁻¹; r1 ([1]; 1.41 T, saline solution, 310 K): 12.6 ± 0.1 mM⁻¹ s⁻¹; r1 ([1]; 3 T, human plasma, 310 K): 13.1 ± 0.2 mM⁻¹ s⁻¹; r1 ([1]; 3 T, saline solution, 310 K): 12.4 ± 0.1 mM⁻¹ s⁻¹; r 1 relative to that of [Gd(BT-DO3A)] (Gadovist) ([1]; 37 °C and 3 T): more than two times higher; change in relaxivity (NMRD profile) in human plasma and in Seronorm ([1]; 310 K, vs water): negligible changes in relaxivity; r 1 higher than [Gd(PCTA)] [2]: 175%; r 1 increase compared to [Gd(DOTA)]− [2]: 309%; relaxivity, times higher than that of currently used GBCAs [2]: 2 to 3 times; q ([2]; listed as [Gd(ent-L2)]): 2^b
2 | O=C([O-])CCC(C(=O)[O-])N1CCN(C(CCC(=O)[O-])C(=O)[O-])Cc2cccc(n2)CN(C(CCC(=O)[O-])C(=O)[O-])CC1.[Gd+3] (racemic) [[Gd(ent‐L1)]^3−] | 10.9 mM⁻¹ s⁻¹ | 8.6 mM⁻¹ s⁻¹ | 96 ± 3 ps | 96±3 ps | 22^b) kJ mol^-1 | 2 | 144 ± 4 ns | 58 ± 5 ns | 2.5 ± 0.1 | – | – | – | – | – | r 1 difference between [Gd(rac-L1)]3− and [Gd(ent-L1)]3− [2]: 18%; q ([2]; listed as [Gd(ent-L1)]^3-): 2^b); ^SS q ([2]; listed as [Gd(ent‐L1)]^3⁻): 2.5
3 | O=C(O)CCC(C(=O)O)N1CCN(C(CCC(=O)O)C(=O)O)Cc2cccc(n2)CN(C(CCC(=O)O)C(=O)O)CC1 (stereo not drawn) [ent‐L1] | – | – | – | – | – | – | – | – | – | 20.77 (2) | 4.76 (2) | 4.18 (2) | 3.29 (2) | 5.26 (2) | –
4 | O=C(CCC(C(=O)O)N1CCN(C(CCC(=O)NCC(O)CO)C(=O)O)Cc2cccc(n2)CN(C(CCC(=O)NCC(O)CO)C(=O)O)CC1)NCC(O)CO (stereo not drawn) [ent‐L2] | – | – | – | – | – | – | – | – | – | 20.13 (3) | – | – | – | 3.27 (3) | –
5 | O=C(O)CCC(C(=O)O)N1CCN(C(CCC(=O)O)C(=O)O)Cc2cccc(n2)CN(C(CCC(=O)O)C(=O)O)CC1 (racemic) [rac‐L1, 2,2’,2’’-[3,6,9,15-tetraazabicyclo[9.3.1]pentadeca-1(15),11,13-triene-3,6,9-triyl]tripentanedioic acid] | – | – | – | – | – | – | – | – | – | 19.54(2) | 5.01 (2) | 3.91 (3) | 3.88 (3) | 5.24 (4) | logK1^H [4]: 10.85; logK2^H [4]: 6.86; logK3^H [4]: 5.37; logK4^H [4]: 4.77; logK5^H [4]: 4.24; logK6^H [4]: 3.4; logK7^H [4]: 1.92; ΣlogKi^H [4]: 37.50
6 | O=C(CCC(C(=O)O)N1CCN(C(CCC(=O)NCC(O)CO)C(=O)O)Cc2cccc(n2)CN(C(CCC(=O)NCC(O)CO)C(=O)O)CC1)NCC(O)CO (racemic) [rac‐L2] | – | – | – | – | – | – | – | – | – | 18.66 (3) | – | – | – | 3.77 (3) | –
